US11485751B2, “Apramycin derivatives” (WAYNE STATE UNIVERSITY, priority 2017, dated 2022)
≈ marks a conversion by molar mass, not a printed value. Where two headings read alike, the source gives them in different places.

Columns and labels:
WT clinical isolates = assay: MIC broth microdilution, WT; format: cell-based; conditions: read-out: MIC WT, clinical isolates, IMM Univ. Zurich; wild type
How it was run: (§1)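 MICs obtained by broth microdilution following CLSI M07-A10, tested against clinical isolates from the Institute of Medical Microbiology, Univ. Zurich; values in μg/ml.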

[1] = test system: clinical isolates carrying AAC(3)-IV; assay: MIC broth microdilution, AAC(3)-IV; format: cell-based; conditions: clinical isolates, IMM Univ. Zurich; AAC(3)-IV; read-out: MIC AAC(3)-IV
How it was run: as §1

[2] = test system: clinical isolates carrying APH(3′)-I; assay: MIC broth microdilution, APH(3′)-I; format: cell-based; conditions: IMM Univ. Zurich
Text: (§2) Minimal inhibitory concentrations (MIC) have been determined by broth microdilution assays (CLSI. Methods for Dilution Antimicrobial Susceptibility Tests for Bacteria That Grow Aerobically; Approved Standard—Tenth Edition. CLSI document M07-A10. Wayne, Pa.: Clinical and Laboratory Standards Institute; 2015.).
(§3) Minimal inhibitory concentrations (MICs, […]) against clinical isolates from Institute of Medical Microbiology, Univ. Zurich, and the IC50 values for bacterial, human mitochondrial and human cytosolic ribosomes are indicated.

[3] = test system: clinical isolates carrying APH(3′)-II; assay: MIC broth microdilution, APH(3′)-II; format: cell-based; conditions: read-out: MIC APH(3′)-II
Text: as §2, §3

[4] = test system: clinical isolates carrying APH(3′)-III; assay: MIC broth microdilution, APH(3′)-III; format: cell-based; conditions: IMM Univ. Zurich
Text: as §2, §3

[5] = test system: clinical isolates carrying APH(3′)-VI; assay: MIC broth microdilution, APH(3′)-VI; format: cell-based; conditions: IMM Univ. Zurich
Text: as §2, §3

bacterial ribosomes = assay: in-vitro translation assay, bacterial ribosomes; format: biochemical
How it was run: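 Inhibitory potency was determined as IC50 in in-vitro translation systems based on bacterial ribosomes, human chimeric (mitochondrial-type) ribosomes or rabbit reticulocyte (cytosolic) ribosomes.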

[6] = test system: human mitochondrial ribosomes; assay: in-vitro translation assay, human mitochondrial (human chimeric) ribosomes; format: biochemical
How it was run: (§4)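 Each ribosome preparation (bacterial, human chimeric as the mitochondrial model, rabbit reticulocyte as the cytosolic model) drives in-vitro translation with the test compound present. Inhibition of translation gives the IC50.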

[7] = test system: human cytosolic ribosomes; assay: in-vitro translation assay, human cytosolic ribosomes; format: biochemical
How it was run: as §4

[8] = test system: AG212, Escherichia coli ATCC25922; assay: MIC reference strain AG212; format: cell-based; conditions: Escherichia coli; reference strain ATCC25922; read-out: MIC AG212 E. coli
How it was run: (§5)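 Read-out is the minimal inhibitory concentration, obtained through broth microdilution done according to the CLSI method for aerobes.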

[9] = test system: AG215, Klebsiella pneumonia; assay: MIC reference strain AG215; format: cell-based; conditions: Klebsiella pneumoniae, reference strain; read-out: MIC AG215 K. pneumonia
How it was run: as §5

[10] = test system: AG290, Enterobacter cloacae; assay: MIC reference strain AG290; format: cell-based; conditions: Enterobacter cloacae; reference strain; read-out: MIC AG290 E. cloacae
How it was run: as §5

[11] = test system: AG220, Pseudomonas aeruginosa ATCC27853; assay: MIC reference strain AG220; format: cell-based; conditions: Pseudomonas aeruginosa, ATCC27853, reference strain ATCC27853; read-out: MIC AG220 P. aeruginosa
How it was run: as §5

[12] = test system: AG225, Acinetobacter baumannii pittii; assay: MIC reference strain AG225; format: cell-based; conditions: Acinetobacter baumannii, reference strain; read-out: MIC AG225 A. baumannii
How it was run: as §5

[13] = test system: SZ380, Mycobacterium smegmatis; assay: MIC reference strain SZ380; format: cell-based; conditions: Mycolicibacterium smegmatis, reference strain; read-out: MIC SZ380 M. smegmatis
How it was run: as §5

ATCC19977 M. abcessus = assay: MIC reference strain ATCC19977; format: cell-based; conditions: read-out: MIC ATCC19977 M. abcessus
How it was run: (§6)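 Values are minimal inhibitory concentrations, obtained by serial dilution of compound in broth according to CLSI guidance for aerobes.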

AG001 E. coli WT = assay: Antibacterial activity, clinical isolate AG001; format: cell-based; parameters: unit not given here
How it was run: as §6

AG038 MRSA = assay: Antibacterial activity, clinical isolate AG038; format: cell-based; parameters: unit not given here
How it was run: as §6

AG031 P. aer. APH(3′)-II = assay: Antibacterial activity, clinical isolate AG031; format: cell-based; parameters: unit not given here
How it was run: as §6

[14] = test system: Engineered E. coli pH430 WT; assay: Activity, engineered E. coli pH430 WT; format: cell-based; conditions: wild type
How it was run: (§7)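 Read-out is the minimal inhibitory concentration, obtained in broth microdilution run according to CLSI guidelines (M07-A10).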

[15] = test system: Engineered E. coli pH424 armA; assay: Activity against G1405-methylated 16S-rRNA, E. coli pH424 armA; format: cell-based
How it was run: as §7

[16] = test system: E. coli AG153 AAC(3)-II APH(3′)-II rmtB; assay: Activity against G1405-methylated 16S-rRNA, clinical isolate AG153; format: cell-based
Text: as §2

[17] = test system: K. pneum. AG269 AAC(3)-II AAC(6′)-I rmtB; assay: Activity against G1405-methylated 16S-rRNA, clinical isolate AG269; format: cell-based
Text: as §2

[18] = test system: Enterob. AG302 AAC(3)-II AAC(6′)-I rmtC; assay: Activity against G1405-methylated 16S-rRNA, clinical isolate AG302; format: cell-based
Text: as §2

[19] = test system: A baum. AG227 APH(3′)-I armA; assay: Activity against G1405-methylated 16S-rRNA, clinical isolate AG227; format: cell-based
Text: as §2

AG173 E. coli AAC(3)-IV = assay: Antibacterial activity, clinical isolate AG173; format: cell-based
How it was run: as §6

[20] = clinical isolates, IMM Univ. Zurich, APH(3′)-II

Row | Compound | MIC (WT clinical isolates) [µg/mL] | MIC [1] [µg/mL] | MIC [2] [µg/mL] | MIC [3, 20] [µg/mL] | MIC [4] [µg/mL] | MIC [5] [µg/mL] | IC50 (bacterial ribosomes) [µM] | IC50 [6] [µM] | IC50 [7] [µM] | MIC [8] [µg/mL] | MIC [9] [µg/mL] | MIC [10] [µg/mL] | MIC [11] [µg/mL] | MIC [12] [µg/mL] | MIC [13] [µg/mL] | Antibacterial activity AG001 E. coli WT (AG001 E. coli WT) | Antibacterial activity AG038 MRSA (AG038 MRSA) | Antibacterial activity AG031 P. aer. APH(3′)-II (AG031 P. aer. APH(3′)-II) | Activity E. coli pH430 WT [14] | Activity E. coli pH424 armA [15] | further results
1 | CNC1C(O)C2O[C@H](O[C@@H]3C(N)C[C@@H](N)C(O)[C@H]3OC3O[C@H](CN)[C@@H](O)[C@H]3O)C(N)C[C@@H]2O[C@@H]1O[C@H]1OC(CO)[C@@H](N)[C@H](O)C1O (stereo partly shown) [DC201] | 8 (≈ 11.9 µM) | 16 (≈ 23.9 µM) | 2 to 4 (≈ 2.98 to 5.96 µM) | 4 (≈ 5.96 µM) | 1 (≈ 1.49 µM) | 4 (≈ 5.96 µM) | 0.12 | 113 | 81 | 4 | 2 | 2 | 4 to 8 | 4 to 8 | 0.25 | 4 | 2-4 | 16 | 8 | 2 | MIC (ATCC19977 M. abcessus): 1 to 2 µg/mL (≈ 1.49 to 2.98 µM); Activity E. coli AG153 AAC(3)-II APH(3′)-II rmtB [16]: 8; Activity K. pneum. AG269 AAC(3)-II AAC(6′)-I rmtB [17]: 4; Activity Enterob. AG302 AAC(3)-II AAC(6′)-I rmtC [18]: 4; Activity A baum. AG227 APH(3′)-I armA [19]: 8-16
2 | CNC1C(O)C2O[C@H](O[C@@H]3C(N)C[C@@H](N)C(O)[C@H]3O[C@@H]3O[C@H](CNCCN)[C@@H](O)[C@H]3O)C(N)C[C@@H]2O[C@@H]1O[C@H]1OC(CO)[C@@H](N)[C@H](O)C1O (stereo partly shown) [DC214] | – | 8 to 16 (≈ 11.2 to 22.4 µM) | 2 (≈ 2.8 µM) | 4 (≈ 5.6 µM) | 1 (≈ 1.4 µM) | 4 (≈ 5.6 µM) | 0.09 | 178 | 85 | 2 | 1 | 1 to 2 | 8 | 8 | 0.25 | 2 | 4 | 8-16 | 4 | 2 | Antibacterial activity AG173 E. coli AAC(3)-IV (AG173 E. coli AAC(3)-IV): 16; Activity E. coli AG153 AAC(3)-II APH(3′)-II rmtB [16]: 2; Activity K. pneum. AG269 AAC(3)-II AAC(6′)-I rmtB [17]: 2; Activity Enterob. AG302 AAC(3)-II AAC(6′)-I rmtC [18]: 1-2; Activity A baum. AG227 APH(3′)-I armA [19]: 4-8
3 | NC[C@@H]1O[C@H](O[C@H]2[C@@H](O)[C@H](O[C@@H]3[C@@H](O)[C@H](N)C[C@H](N)[C@H]3O[C@H]3O[C@H](CO)[C@@H](O)[C@H](O)[C@H]3N)O[C@@H]2CO)[C@H](N)[C@@H](O)[C@@H]1O [paromomycin, reference compound] | 1 to 2 (≈ 1.62 to 3.25 µM) | 128 (≈ 208 µM) | > 128 | – | > 128 | > 128 | 0.02 | 86 | 19 | – | – | – | – | – | – | – | – | – | – | – | MIC [3]: > 128 µg/mL
